Biological target: recombinant human CCR5 receptor (Homo sapiens, UniProt P51681)
Assay: MIP-1α radioligand binding assay (scintillation proximity, CHO cell membranes)
Conditions: displacement of 0.1 nM iodinated MIP-1α from membranes of Chinese hamster ovary cells expressing recombinant human CCR5; average if tested more than once
Description: The ability of compounds to inhibit the binding of MIP-1α was assessed by an in vitro radioligand binding assay. Membranes were prepared from Chinese hamster ovary cells which expressed the recombinant human CCR5 receptor. These membranes were incubated with 0.1 nM iodinated MIP-1α, scintillation proximity beads and various concentrations of the compounds of the invention in 96-well plates. The amount of iodinated MIP-1α bound to the receptor was determined by scintillation counting.
In Table II the results are presented as Pic50 values. […] If a as tested more than once then the data below is an average of the probative tests

Sequence of recombinant human CCR5 receptor (P51681 whole entry): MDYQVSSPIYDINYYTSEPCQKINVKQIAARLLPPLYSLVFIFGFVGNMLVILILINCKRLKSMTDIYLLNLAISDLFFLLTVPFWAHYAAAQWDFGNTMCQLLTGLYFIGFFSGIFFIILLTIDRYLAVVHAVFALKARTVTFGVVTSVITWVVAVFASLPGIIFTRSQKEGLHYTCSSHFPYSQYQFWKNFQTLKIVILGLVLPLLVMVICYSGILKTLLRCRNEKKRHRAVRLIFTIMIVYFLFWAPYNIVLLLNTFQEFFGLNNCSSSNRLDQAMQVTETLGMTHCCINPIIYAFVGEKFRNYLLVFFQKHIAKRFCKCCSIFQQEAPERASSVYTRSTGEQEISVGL

IC50 [nM]	SMILES
0.316	CCN(C(=O)Cc1ccc(S(C)(=O)=O)cc1)C1CCN(CC[C@@H](c2cc(F)cc(F)c2)C2CCN(S(C)(=O)=O)CC2)CC1 [Compound 1, N-(1-{(3R)-3-(3,5-difluorophenyl)-3-[1-(methylsulfonyl)piperidin-4-yl]propyl}piperidin-4-yl)-N-ethyl-2-[4-(methylsulfonyl)phenyl]-acetamide]
0.501	CCN(C(=O)NCc1ccc(S(C)(=O)=O)cc1)C1CCN(CC[C@@H](c2cc(F)cc(F)c2)C2CCN(S(C)(=O)=O)CC2)CC1 [Compound 2]
3.55	CCN(C(=O)Cc1ccc(S(C)(=O)=O)cc1)C1CCN(CC[C@@H](c2cccc(C(F)(F)F)c2)C2CCN(S(C)(=O)=O)CC2)CC1 [Compound 3]
1.58	CS(=O)(=O)c1ccc(CC(=O)N(C2CC2)C2CCN(CC[C@@H](c3cc(F)cc(F)c3)C3CCN(S(C)(=O)=O)CC3)CC2)cc1 [Compound 4]

Source: patent US20070259914A1, “Novel Piperidine Derivates as Modulators of Chemokine Receptor Ccr5” (priority 2004, published 2007)
